Structures can show the parent of a compound that is named as a salt. Where two headings read alike, the source gives them in different places.

Data set [1] deals with striatal cell layer of the striatum. The data set is described as follows: Stroke model in rats (four-vessel occlusion), striatal damage. It is filed as in vivo, male Wistar rats. The note with it: scale 0-3, mean ± SE.
From the text: (§1) Strokes were produced in rats by occluding the four arteries that supply blood to the brain according to the following procedure. Male Wistar rats (250-280 g; Hilltop Laboratories, Scottsdale, Pa.) were anesthetized with metofane and placed into a stereotaxic instrument. A longitudinal incisio was made on the dorsal surface of the neck. The neck muscles were reflected to expose the dorsal surface of the spinal column. The two vertebral arteries were exposed where they pass through the first cervica vertebra. Both arteries were permanently occluded by the application of electrocautery. After coagulation of the vertebral arteries, the rat was removed from the stereotaxic instrument and the surgical wound was sutured. Two longitudinal incisions were then made on the ventral surface of the neck. The two common carotid arteries were exposed and dissected free from surrounding nerves and connective tissue. Reversible atraumatic clamps, fabricated mainly from silicon rubber tubing, were placed around each carotid artery in a manner such that the vessels were not traumatize or occluded. The clamps were externalized through the ventral neck incision. A suture was also placed through the neck dorsal to the carotids, esophagus and trachea, and tied loosely behind the neck. This suture is tied tightly at the time ischemia is induced in order to restrict collateral circulation reaching the brain through the dorsal muscles of the neck. The surgical wounds were then closed. After the surgery, the rats were allowed to recover for 24 hours (free access to water, but no food during this period).
(§2) On the day of testing, test compounds were administered at various times before stroke induction. Strokes (cerebral ischemia) were induced by tightening the clamps around the carotids, thereby stopping blood flow in the carotids. Rats in which strokes were successfully produced lost the righting reflex and became unresponsive to stimuli. Collateral circulatio through the dorsal neck muscles was then restricted by tightening the previously implanted suture. […] After 30 minutes of ischemia, the carotid clamps wer released, the neck suture was loosened, and blood flow to the brain was restored. Following the period of ischemia, the rats were allowed free access to food and water. Rats were again treated with test compounds at various times after the stroke. On the third day after the stroke the animals were sacrificed and their brains were removed, frozen and sectioned through the striatum and hippocampus. Sections were mounted on glass slides and stained with hematoxylin and eosin.
(§3) Two of the areas of the brain that are most susceptible to ischemia induce damage, both in rats and humans, are the CA1 pyramidal cell layer of the hippocampus and the striatal cell layer of the striatum. In animals that remain unresponsive for the 30 minute period of ischemia, the CA1 pyramidal cell layer and the striatal cell layer are completely destroyed. These layers of cells were examined microscopically in histological sections prepared from the hippocampus and striatum. Brain damage was rated according to the following scale:
(§4) 0=no damage, completely intact cell layer
(§5) 1=mild damage, onethird of cell layer dead
(§6) 2=moderate damage, twothirds of cell layer dead
(§7) 3=severe damage, complete destruction of cell layer
(§8) Damage in 10-12 sections from each brain was assessed in order to obtain a accurate estimate of damage. An average damage score was calculated for each treatment group. Scores from treated groups were compared statistically with scores from control groups which received only the vehicle used to suspend the compounds. The level of significance was determined using the Mann WhitneyU-test.
Data set [2] has as its system hippocampal CA1 pyramidal cell layer. The data set is described as follows: Stroke model in rats (four-vessel occlusion), hippocampal CA1 damage. The note with it: for Damage Score, Hippocampus: scale 0-3, mean ± SE.
From the text: as §1, §2, §3, §4, §5, §6, §7, §8
In data set [3] the test system is adjuvant-induced arthritis (uninjected hind paw). Put plainly: Developing Adjuvant-Induced Arthritis Test in Rats. To be noted: po, 720 h, AUC days 16-30; for inhibition in vivo at 50 mg/kg: 50 mg/kg rat weight × 29, p.o. once daily. It counts as in vivo, male Lewis-Wistar rats.
Data set [4] relates to ischemia-induced cell damage caused by middle cerebral artery occlusion. The data set is described as follows: Middle Cerebral Artery Occlusion Stroke Model. It counts as in vivo, male spontaneously hypertensive rats. To be noted: for toxicity of higher doses (footnote ++): doses above 10/5 mg/kg i.v. The text has this:
Strokes were also produced in rats by occluding the middle cerebral artery according to the following procedure. Male spontaneously hypertensive rats were housed in groups of three to four per cage and allowed free access to food and water. The animals were anesthetized with a mixture of 2.5% halothane and air. The anesthetized rats then underwent the following surgical procedure.
A femoral artery of each rat was cannulated to monitor mean arterial pressure and a jugular cannula was inserted in order to provide a means for administering test compounds intravenously. […] The ventral neck area and the area behind each animal's right eye were shaved and washed with antiseptic solution. The right common carotid artery was dissected free of connective tissue through a midline cervical incision and the vessel permanently occluded with a silk ligature. Next, a 1 cm incision perpendicular to, and bisecting a line between the lateral canthus of the right eye and the external auditory canal, was made to expose the temporalis muscle which was retracted and partially excised. Using a dissecting microscope, the right middle cerebral artery was exposed through a 2 mm burr hole drilled 2-3 mm rostral to the fusion of the zygomatic arch with a squamosal bone. Drilling was done under a continuous drip of a 0.9% saline solution to prevent heat injury of the underlying cortex. The dura was cut and retracted to expose the middle cerebral artery.
This artery was occluded in two ways. The first method of occlusion involved permanent cauterization of the artery so that blood flow through the artery was completely eliminated. The second method of occulsion was only temporary (lasting two hours) and involved clamping the artery with microaneurism clips. Test compounds were administered at various times before, during and after occlusion. Each animal's body temperature was maintained at 37° C. during testing using a rectal thermometer connected to a heating pad.
Twenty-four hours after tandem middle cerbral carotid artery occlusion, the test animals were sacrificed and their brains removed and frozen over dry ice. Coronal sections 20 microns thick were cut at half millimeter intervals in a cryostat at -20° C. and dried on a hot plate at 60° C. The sections were then stained with cresyl violet. […] A total infarct volume was then calculated using a computer program that summed all sectional areas measured multiplied by the interval thickness. The lower the infarcted volume obtained, the lower the amount of cell damage caused by the stroke. The level of significance was obtained using Student's "t-test".

Setting [5] is: 100 mg/kg orally, 2% acacia, time c (30 min pre, 4 h and 24 h postischemia), control 1.4 ± 0.3.
[6] abbreviates: 100 mg/kg orally, 2% acacia, time c (30 min pre, 4 h and 24 h postischemia), control 2.5 ± 0.3.
Where [7] appears, read: 25 mg/kg rat weight × 29, p.o. once daily, read-out: % Inhibition of Uninjected Paw Volume Inflammation, Days 16-30.
Where [8] appears, read: read-out: % Inhibition of Uninjected Paw Volume Inflammation, Days 16-30.
Setting [9] is: 25 mg/kg orally, water, time a (15 min pre, 4 h and 24 h postischemia), control 2.5 ± 0.3.
Setting [10] is: 100 mg/kg orally, 2% acacia, time c (30 min pre, 4 h and 24 h postischemia), control 2.7 ± 0.2.
The mark [11] stands for this setting: 100 mg/kg orally, water, time a (15 min pre, 4 h and 24 h postischemia), control 2.7 ± 0.2.
Setting [12] is: 50 mg/kg orally, 2% acacia, time c (30 min pre, 4 h and 24 h postischemia), control 2.71 ± 0.22.
[13] abbreviates: 50 mg/kg orally, 2% acacia, time c (30 min pre, 4 h and 24 h postischemia), control 2.73 ± 0.22.
Where [14] appears, read: 100 mg/kg orally, 2% acacia, time a (15 min pre, 4 h and 24 h postischemia), control 2.4 ± 0.4.
[15] abbreviates: 100 mg/kg orally, 2% acacia, time a (15 min pre, 4 h and 24 h postischemia), control 2.9 ± 0.1.

With `CC(C)(C)c1cc(CN2CCCC2)cc(C(C)(C)C)c1O.Cl` [4-(1-pyrrolidinomethyl)-2,6-bis(1,1-dimethylethyl)phenol hydrochloride], the “Damage Score, Striatum” value in data set [1] (setting [5]) is on record as 1.5 ± 0.4. In addition, the “Damage Score, Hippocampus” value in data set [2] (setting [6]) is listed as 1.2 ± 0.5.
As for `CC(C)(C)c1cc(CN2CCOCC2)cc(C(C)(C)C)c1O` [4-(4-morpholinylmethyl)-2,6-bis(1,1-dimethylethyl)phenol], the inhibition in vivo at 25 mg/kg in data set [3] (setting [7]) worked out at 40.6%. The inhibition in vivo at 50 mg/kg in data set [3] (setting [8]) came out at 71.1%.
In the case of `CCNC(C)c1cc(C(C)(C)C)c(O)c(C(C)(C)C)c1.Cl` (stereo not drawn) [4-[1-(ethylamino)ethyl]-2,6-bis(1,1-dimethylethyl)phenol hydrochloride], the “Damage Score, Striatum” value in data set [1] (50 mg/kg orally, 2% acacia, time c (30 min pre, 4 h and 24 h postischemia), control 1.9 ± 0.4, only 7 rats because of toxicity) came out at 1.5 ± 0.5. In data set [2] (50 mg/kg orally, 2% acacia, time c, data on only 7 rats), the “toxicity in stroke model (footnote ****)” value is recorded as “data obtained on only 7 rats because of toxicity problems”. Also, the “Damage Score, Hippocampus” value in data set [2] (50 mg/kg orally, 2% acacia, time c (30 min pre, 4 h and 24 h postischemia), control 2.6 ± 0.3, only 7 rats because of toxicity) is recorded as 0.9 ± 0.4. The “toxicity of higher doses (footnote ++)” value in data set [4] (temporary occlusion, 10% DMSO in saline) is “higher doses were toxic in this model”. The “Infarct Volume” value in data set [4] (temporary occlusion, 10/5 mg/kg i.v. (per hour), 10% DMSO in saline, time d, control 106 ± 15) is on record as 92 ± 10 (mm)^3.
Turning to `CN(C)CCc1cc(C(C)(C)C)c(O)c(C(C)(C)C)c1.Cl` [4-[2-(dimethylamino)ethyl]-2,6-bis(1,1-dimethylethyl)phenol hydrochloride], the “Damage Score, Striatum” value in data set [1] (setting [9]) is 0.9 ± 0.3; in data set [1] (50 mg/kg orally, water, time a (15 min pre, 4 h and 24 h postischemia), control 2.8 ± 0.2), 0.3 ± 0.2; in data set [1] (setting [10]), 0.0 ± 0.0; in data set [1] (setting [11]), 0.1 ± 0.0. For the same compound, the “Damage Score, Hippocampus” value in data set [2] (setting [9]) is on record as 1.6 ± 0.3; in data set [2] (50 mg/kg orally, water, time a (15 min pre, 4 h and 24 h postischemia), control 3.0 ± 0.0), 0.8 ± 0.4; in data set [2] (setting [10]), 0.2 ± 0.2; in data set [2] (setting [11]), 0.2 ± 0.2. The “toxicity of higher doses (footnote ++)” value in data set [4] (permanent occlusion, saline) was “higher doses were toxic in this model”. Also, the “Infarct Volume” value was 161 ± 17 (mm)^3 in data set [4] (permanent occlusion, 10/5 mg/kg i.v. (per hour), saline, time c, control 154 ± 11) and 77.6 ± 5.5 (mm)^3 in data set [4] (temporary occlusion, 20/5 mg/kg i.v. (per hour), saline, time d, control 84.7 ± 6.4).
Regarding `CN(C)CCc1cc(C(C)(C)C)c(O)c(C(C)(C)C)c1` [4-[2-(dimethylamino)ethyl]-2,6-bis(1,1-dimethylethyl)phenol], in data set [1] (setting [10]), the “Damage Score, Striatum” value was found to be 0.0 ± 0.0. In addition, the “Damage Score, Hippocampus” value in data set [2] (setting [10]) stood at 0.0 ± 0.0.
In the case of `CNCCc1ccc(O)c(C(C)(C)C)c1.Cl` [4-[2-(methylamino)ethyl]-2-(1,1-dimethylethyl)phenol hydrochloride], the “Damage Score, Striatum” value in data set [1] (setting [12]) was 1.62 ± 0.35. For the same compound, in data set [3] (Rattus norvegicus, read-out: % Inhibition of Uninjected Paw Volume Inflammation, Days 16-30, 25 mg/kg rat weight × 29, p.o. once daily), the inhibition in vivo at 25 mg/kg amounted to 76.6%. Further, the “Damage Score, Hippocampus” value in data set [2] (setting [13]) is 2.78 ± 0.12.
For `CCN(C)Cc1cc(C(C)(C)C)c(O)c(C(C)(C)C)c1` [4-[(N-ethyl-N-methylamino)methyl]-2,6-bis(1,1-dimethylethyl)phenol methanesulfonate], in data set [1] (setting [14]), the “Damage Score, Striatum” value is 1.1 ± 0.4. Further, the inhibition in vivo at 25 mg/kg in data set [3] (setting [7]) came out at 26%. Moreover, the “Damage Score, Hippocampus” value in data set [2] (setting [15]) was found to be 1.1 ± 0.5.
For `CCN(CC)Cc1cc(C(C)(C)C)c(O)c(C(C)(C)C)c1.Cl` [4-[(diethylamino)methyl]-2,6-bis(1,1-dimethylethyl)phenol hydrochloride], in data set [1] (setting [5]), the “Damage Score, Striatum” value came to 1.7 ± 0.6. Also, the “Damage Score, Hippocampus” value in data set [2] (setting [6]) turned out to be 2.0 ± 0.5.
`CN(C)Cc1cc(C(C)(C)C)c(O)c(C(C)(C)C)c1` [4-[(dimethylamino)methyl]-2,6-bis(1,1-dimethylethyl)phenol methanesulfonate]: the “Damage Score, Striatum” value in data set [1] (setting [14]) stood at 0.8 ± 0.3. For the same compound, the “Damage Score, Hippocampus” value in data set [2] (setting [15]) amounted to 0.9 ± 0.3. Besides, the “Infarct Volume” value in data set [4] (temporary occlusion, 30/5 mg/kg i.v. (per hour), saline, time d (15 min before clamp removal, then 24 h), control 97 ± 10) is 69 ± 9 (mm)^3.
For the compound `CCNCc1cc(C(C)(C)C)c(O)c(C(C)(C)C)c1` [4-[(ethylamino)methyl]-2,6-bis(1,1-dimethylethyl)phenol nitrate], the “Damage Score, Striatum” value in data set [1] (50 mg/kg orally, 2% acacia, time c (30 min pre, 4 h and 24 h postischemia), control 2.30 ± 0.32) is 1.26 ± 0.40. The “Damage Score, Hippocampus” value in data set [2] (50 mg/kg orally, 2% acacia, time c (30 min pre, 4 h and 24 h postischemia), control 2.90 ± 0.04) was found to be 1.81 ± 0.36.
`CC(C)NCc1cc(C(C)(C)C)c(O)c(C(C)(C)C)c1` [4-[(isopropylamino)methyl]-2,6-bis(1,1-dimethylethyl)-phenol hydrochloride]: the inhibition in vivo at 25 mg/kg in data set [3] (setting [7]) came to 4.9%.
Consider `CCCNCc1cc(C(C)(C)C)c(O)c(C(C)(C)C)c1.Cl` [4-[(n-propylamino)methyl]-2,6-bis(1,1-dimethylethyl)phenol hydrochloride], for which, in data set [1] (50 mg/kg orally, distilled water, time c (30 min pre, 4 h and 24 h postischemia), control 2.53 ± 0.22), the “Damage Score, Striatum” value is on record as 1.05 ± 0.33. For the same compound, the “Damage Score, Hippocampus” value in data set [2] (50 mg/kg orally, distilled water, time c (30 min pre, 4 h and 24 h postischemia), control 2.96 ± 0.03) stood at 1.48 ± 0.34.
Regarding `CC(C)(C)NCc1cc(C(C)(C)C)c(O)c(C(C)(C)C)c1.Cl` [4-{[(1,1-dimethylethyl)amino]methyl}-2,6-bis(1,1dimethylethyl)phenol hydrochloride], in data set [1] (setting [12]), the “Damage Score, Striatum” value is 0.75 ± 0.35. The inhibition in vivo at 25 mg/kg in data set [3] (setting [7]) is 3.9%. For the same compound, in data set [2] (setting [13]), the “Damage Score, Hippocampus” value is reported as 1.72 ± 0.43.
Consider `CN(Cc1cc(C(C)(C)C)c(O)c(C(C)(C)C)c1)Cc1cc(C(C)(C)C)c(O)c(C(C)(C)C)c1.Cl` [4-{[N-methyl-N-(4-hydroxy-3,5-bis(1,1-dimethylethyl)benzyl)amino]methyl}-2,6-bis(1,1-dimethylethyl)phenol hydrochloride], for which the “Damage Score, Striatum” value in data set [1] (setting [10]) worked out at 1.8 ± 0.4. The “Damage Score, Hippocampus” value in data set [2] (setting [10]) was 2.9 ± 0.1.
Take `CN(Cc1cc(C(C)(C)C)c(O)c(C(C)(C)C)c1)Cc1cc(C(C)(C)C)c(O)c(C(C)(C)C)c1` [4-{[N-methyl-N-(4-hydroxy-3,5-bis(1,1-dimethylethyl)benzyl)amino]methyl}-2,6-bis(1,1-dimethylethyl)phenol]: the “Damage Score, Striatum” value in data set [1] (setting [10]) came out at 2.4 ± 0.4. For the same compound, the inhibition in vivo at 50 mg/kg in data set [3] (setting [8]) turned out to be 77%. Besides, the “Damage Score, Hippocampus” value in data set [2] (setting [10]) worked out at 2.9 ± 0.2.
As for `CN(C)C(=O)c1cc(C(C)(C)C)c(O)c(C(C)(C)C)c1` [N,N-dimethyl-3,5-bis(1,1-dimethylethyl)-4-hydroxybenzamide], the inhibition in vivo at 50 mg/kg in data set [3] (setting [8]) is 64.4%.
Consider `CC(C)(C)c1cc(C(=O)Nc2ccccc2Cl)cc(C(C)(C)C)c1O` [N-2-chlorophenyl-3,5-bis(1,1-dimethylethyl)-4-hydroxy-benzamide], for which the inhibition in vivo at 50 mg/kg in data set [3] (setting [8]) was 8.7%.
